Assay results published in US5523314A, “Compounds useful as hypoglycemic agents and for treating Alzheimer's disease” (priority 1994, dated 1996).
Structures can show the parent of a compound that is named as a salt. Where two headings read alike, the source gives them in different places.

Legend:
blood glucose level [1] = experiment: Hypoglycemic activity in normal fed rats (Table 2); type: in vivo, male Sprague Dawley rats; settings: Rattus norvegicus
Description: The procedure used in this test system is described below.
The desired dose level of each test formulation was administered to four rats by oral […] at the beginning of the experiment. Blood glucose levels were determined immediately before the first dose and at 3 and 5 hours thereafter by an enzymatic procedure employing glucose oxidase and peroxidase coupled with a chromogenic oxygen acceptor. A mean was taken of the 4 values obtained before the first dose and at the 3 and 5 hour intervals.

blood glucose level [2] = experiment: Hypoglycemic activity in obese diabetic mice (Table 1); type: in vivo, male viable yellow obese-diabetic mice; settings: for response vs control in vivo at 50 mg/kg / response vs control in vivo at 25 mg/kg / response vs control in vivo at 5 mg/kg / response vs control in vivo at 10 mg/kg: Mus musculus, ip
Description: The hypoglycemic activity of the compounds of the present invention was determined by testing the efficacy of the compounds in vivo in male viable yellow obese-diabetic mice. The test procedure is described in detail below.
Test formulations were prepared by dissolving the test compound in a saline solution containing 2% Emulphor (a polyoxyethylated vegetable oil surfactant from GAP Corp.) to provide the dose level desired. Each test formulation was administered to six viable yellow obese-diabetic mice intraperitoneally at the beginning of the experiment. Blood glucose levels were determined immediately before the first dose and at 2 and 4 hours thereafter using glucose oxidase. A mean was taken of the 6 values obtained before the first dose and at the 2 and 4 hour intervals. In Table 1, Column 1 provides the example number of the test compound, Column 2 provides the dose level of compound tested, and Columns 3 and 4 provide a measurement of the test animal's blood glucose level 2 and 4 hours after test compound administration, respectively, as a percentage of the test animal' s pre-administration blood glucose level.

Human liver cathepsin D = target: T1, Human liver cathepsin D (Homo sapiens, UniProt P07339); experiment: Cathepsin D inhibition, fluorometric assay (Tables 5 and 6); type: biochemical; settings: for inhibition at 10 µg/mL (stock): Compound Stock Concentration 10.0 μg/ml; for inhibition at 4.15 µg/mL (stock): Compound Stock Concentration 4.15 μg/ml; for ability to inhibit cathepsin D: compared to structurally similar compounds known in the art, in words
T1 construct: purchased Athens Research and Technology, Athens, Ga; host or cells: human liver
T1 sequence (P07339 169-412 limits assumed): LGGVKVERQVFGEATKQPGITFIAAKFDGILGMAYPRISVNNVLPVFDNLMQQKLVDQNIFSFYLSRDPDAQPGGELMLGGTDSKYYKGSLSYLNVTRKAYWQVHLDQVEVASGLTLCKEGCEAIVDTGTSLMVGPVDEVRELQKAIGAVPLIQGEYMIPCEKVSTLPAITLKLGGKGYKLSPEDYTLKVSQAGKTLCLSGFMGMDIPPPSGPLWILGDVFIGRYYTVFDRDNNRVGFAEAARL
T1 sequence (P07339 65-161 limits assumed): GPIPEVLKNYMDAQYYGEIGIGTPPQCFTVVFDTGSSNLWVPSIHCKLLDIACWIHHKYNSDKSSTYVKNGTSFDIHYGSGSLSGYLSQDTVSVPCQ
Description: Human liver cathepsin D (Athens Research and Technology, Athens, Ga.) was diluted in assay buffer, 200 mM NaOAc, pH 4.5, 150 mM NaCl to 500 ng/mL and then 100 μL of this cathepsin D solution was added to each well of a 96 well plate with the exception of control wells which received just 100 μL of assay buffer. […] Blank and enzyme control wells each received 5 μL of the DMSO vehicle.
After incubation at 37° C. for 30 minutes, cathepsin D activity was terminated by the addition of 100 μL per well of 400 mU/mL microsomal leucine aminopeptidase (EC 3.4.11.2, Sigma, St. Louis, Mo.) in 1M Tris-HCl, pH 8.0.
Following a two hour incubation at 37° C., to allow the aminopeptidase to release the fluorophore, 7-amido-4-methylcoumarin (AMC) from the products of cathepsin D cleavage, the plates were again analyzed in the fluorometer. In order to check for potential false positives, i.e., inhibitors of microsomal leucine aminopeptidase, residual aminopeptidase activity was monitored directly in each well by the addition of 20 μL/well of 2.5 mM Leu-pNA (Bachem Biosciences, Philadelphia, Pa.) in 10% DMSO.

[3] = 200 mg/kg, oral, 3 hrs, read-out: Percent of Initial Blood Glucose Level After 3 hrs.
[4] = 200 mg/kg, oral, 5 hrs, read-out: Percent of Initial Blood Glucose Level After 5 hrs.
[5] = 4 h, intraperitoneal, 4 hrs, read-out: Percent of Initial Blood Glucose Level After 4 hrs.
[6] = intraperitoneal, 2 hrs, read-out: Percent of Initial Blood Glucose Level After 2 hrs.
[7] = intraperitoneal, 4 hrs, read-out: Percent of Initial Blood Glucose Level After 4 hrs.
[8] = 2 h, intraperitoneal, 2 hrs, read-out: Percent of Initial Blood Glucose Level After 2 hrs.

SMILES | response vs control in vivo at 200 mg/kg (blood glucose level [1]; [3]) | response vs control in vivo at 200 mg/kg (blood glucose level [1]; [4]) | response vs control in vivo at 50 mg/kg (blood glucose level [2]; [5]) | response vs control in vivo at 50 mg/kg (blood glucose level [2]; [8]) | other results
Cc1cc(C=C2SC(=S)NC2=O)cc(C)c1O [Example 62, 5-[(3,5-dimethyl-4-hydroxyphenyl)methylene]-2-thioxo-4-thiazolidinone] | 78% | 53% | – | – | –
CCCOc1ccc(C=C2SC(=S)NC2=O)cc1 [Example 61, 5-[(4-propoxyphenyl)methylene]-2-thioxo-4-thiazolidinone] | 89% | 82% | 61 ± 5% | – | –
COc1cccc(C=C2SC(=S)NC2=O)c1 [Example 25, 5-[(3-methoxyphenyl)methylene]-2-thioxo-4-thiazolidinone] | 100% | 100% | – | – | response vs control in vivo at 25 mg/kg (blood glucose level [2]; [6]): 84 ± 5%; response vs control in vivo at 25 mg/kg (blood glucose level [2]; [7]): 87 ± 6%; response vs control in vivo at 50 mg/kg (blood glucose level [2]; [6]): 78 ± 4%; response vs control in vivo at 50 mg/kg (blood glucose level [2]; [7]): 74 ± 4%
O=C1NC(=S)SC1=C(c1ccccc1)c1ccccc1 [Example 4, 5-(diphenylmethylene)-2-thioxo-4-thiazolidinone] | – | – | 72 ± 7% | 91 ± 4% | inhibition at 10 µg/mL (stock) (Human liver cathepsin D): 50%
CC(C)(C)c1cc(C=C2SC(=S)NC2=O)cc(C(C)(C)C)c1O [Example 28, 5-[[3,5-bis(1,1-dimethylethyl)-4-hydroxyphenyl]methylene]-2-thioxo-4-thiazolidinone] | – | – | 79 ± 7% | 83 ± 9% | IC50 (Human liver cathepsin D): 3.1 µM
CCCCCOc1ccc(CC2SCNC2=O)cc1OC (centres unmarked) [Example 67, 5-[(3-methoxy-4-pentoxyphenyl)methyl]-4-thiazolidinone] | 92% | 88% | – | – | –
CCCCCOc1ccc(C=C2SC(=S)NC2=O)cc1OC [Example 57, 5-[(3-methoxy-4-pentoxyphenyl)methylene]-2-thioxo-4-thiazolidinone sodium salt] | – | – | – | – | response vs control in vivo at 5 mg/kg (blood glucose level [2]; 2 h, read-out: Percent of Initial Blood Glucose Level After 2 hrs., 5 mg/kg, intraperitoneal, 2 hrs): 82 ± 6%; response vs control in vivo at 10 mg/kg (blood glucose level [2]; 2 h, read-out: Percent of Initial Blood Glucose Level After 2 hrs., 10 mg/kg, intraperitoneal, 2 hrs): 95 ± 3%; response vs control in vivo at 5 mg/kg (blood glucose level [2]; 4 h, read-out: Percent of Initial Blood Glucose Level After 4 hrs., 5 mg/kg, intraperitoneal, 4 hrs): 68 ± 5%; response vs control in vivo at 10 mg/kg (blood glucose level [2]; 4 h, read-out: Percent of Initial Blood Glucose Level After 4 hrs., 10 mg/kg, intraperitoneal, 4 hrs): 87 ± 6%; response vs control in vivo at 200 mg/kg (blood glucose level [1]; po, 3 h, read-out: Percent of Initial Blood Glucose Level After 3 hrs.): 84%; response vs control in vivo at 200 mg/kg (blood glucose level [1]; po, 5 h, read-out: Percent of Initial Blood Glucose Level After 5 hrs.): 73%
O=C1NC(=S)SC1=Cc1ccc(O)cc1 [Example 8, 5-[(4-hydroxyphenyl)methylene]-2-thioxo-4-thiazolidinone] | – | – | 84 ± 6% | 94 ± 4% | inhibition at 10 µg/mL (stock) (Human liver cathepsin D): 64%
COc1ccc(C=C2SC(=S)NC2=O)cc1 [Example 18, 5-[(4-methoxyphenyl)methylene]-2-thioxo-4-thiazolidinone] | – | – | 88 ± 5% | 89 ± 4% | inhibition at 10 µg/mL (stock) (Human liver cathepsin D): 38%
CCCCCOc1ccc(C=C2SCNC2=O)cc1OC [Example 66, 5-[(3-methoxy-4-pentoxyphenyl)methylene]-4-thiazolidinone] | 100% | 86% | – | – | –
COc1cc(C=C2SC(=S)NC2=O)cc(OC)c1OC [Example 17, 5-[(3,4,5-trimethoxyphenyl)methylene]-2-thioxo-4-thiazolidinone] | 78% | 68% | 89 ± 10% | 88 ± 8% | –
CCCOc1cc(C=C2SC(=S)NC2=O)ccc1OCC [Example 50, 5-[(3-propoxy-4-ethoxyphenyl)methylene]-2-thioxo-4-thiazolidinone] | – | – | 69 ± 5% | 75 ± 5% | ability to lower blood glucose levels in mammals (blood glucose level [2]; compared to structurally similar compounds known in the art, in words): surprising ability to lower blood glucose levels in mammals; inhibition at 4.15 µg/mL (stock) (Human liver cathepsin D): 40%
CCCCCOc1ccc(C=C2SC(=S)N(C)C2=O)cc1OC [Example 65, 5-[(3-methoxy-4-pentoxyphenyl)methylene]-2-thioxo-3-methyl-4-thiazolidinone] | 100% | 91% | – | – | –
CCOc1cc(C=C2SC(=S)NC2=O)ccc1OC [Example 58, 5-[(3-ethoxy-4-methoxyphenyl)methylene]-2-thioxo-4-thiazolidinone] | 100% | 100% | 75 ± 5% | 67 ± 2% | –
O=C1NC(=S)SC1=Cc1cc(Cl)c(O)c(Cl)c1 [Example 55, 5-[(3,5-dichloro-4-hydroxyphenyl)methylene]-2-thioxo-4-thiazolidinone] | – | – | 75 ± 3% | 81 ± 3% | inhibition at 4.15 µg/mL (stock) (Human liver cathepsin D): 90%; ability to inhibit cathepsin D (Human liver cathepsin D): surprising ability to inhibit cathepsin D levels
CCCCOc1ccc(C=C2SC(=S)NC2=O)cc1OC [Example 41, 5-[(3-methoxy-4-butoxyphenyl)methylene]-2-thioxo-4-thiazolidinone] | – | – | – | 61 ± 3% | response vs control in vivo at 5 mg/kg (blood glucose level [2]; 2 h, 5 mg/kg, intraperitoneal, 2 hrs, read-out: Percent of Initial Blood Glucose Level After 2 hrs.): 93 ± 10%; response vs control in vivo at 10 mg/kg (blood glucose level [2]; 2 h, 10 mg/kg, intraperitoneal, 2 hrs, read-out: Percent of Initial Blood Glucose Level After 2 hrs.): 80 ± 7%; response vs control in vivo at 160 mg/kg (blood glucose level [1]; oral, 3 hrs, read-out: Percent of Initial Blood Glucose Level After 3 hrs.): 76%; response vs control in vivo at 160 mg/kg (blood glucose level [1]; oral, 5 hrs, read-out: Percent of Initial Blood Glucose Level After 5 hrs.): 67%
COc1ccc(C(=C2SC(=S)NC2=O)c2ccccc2)cc1 [Example 21, 5-[(4-methoxyphenyl)phenylmethylene]-2-thioxo-4-thiazolidinone] | – | – | 81 ± 6% | 99 ± 4% | inhibition at 4.15 µg/mL (stock) (Human liver cathepsin D): 40%
COc1cccc(C=C2SC(=S)NC2=O)c1OC [Example 24, 5-[(2,3-dimethoxyphenyl)methylene]-2-thioxo-4-thiazolidinone] | 100% | 100% | 80 ± 5% | 78 ± 4% | –
O=C1NC(=S)SC1=Cc1ccc2ccccc2c1 [Example 35, 5-[(2-naphthalenyl)methylene)-2-thioxo-4-thiazolidinone] | – | – | 85 ± 6% | 83 ± 5% | IC50 (Human liver cathepsin D): 8.9 µM; inhibition at 4.15 µg/mL (stock) (Human liver cathepsin D): 57%
CS(=O)(=O)Nc1cccc(C=C2SC(=S)NC2=O)c1 [Example 1, 5-[(3-methanesulfonamidophenyl)methylene]-2-thioxo-4-thiazolidinone] | – | – | 75 ± 2% | 82 ± 5% | inhibition at 10 µg/mL (stock) (Human liver cathepsin D): 36%
CCCCCCCOc1ccc(C=C2SC(=S)N(N(C)C)C2=O)cc1OCCCCCCC [Example 93, 5-[(3,4-diheptoxyphenyl)methylene]-2-thioxo-3-dimethylamino-4-thiazolidinone] | – | – | – | – | IC50 (Human liver cathepsin D): 7.5 µM
CCCCCOc1ccc(C=C2SC(=S)N(CC(=O)O)C2=O)cc1OCCCCC [Example 91, 5-[(3,4-dipentoxyphenyl)methylene]-4-oxo-2-thioxo-3-thiazolidine acetic acid] | – | – | – | – | IC50 (Human liver cathepsin D): 9.7 µM; inhibition at 4.15 µg/mL (stock) (Human liver cathepsin D): 72%; ability to inhibit cathepsin D (Human liver cathepsin D): surprising ability to inhibit cathepsin D levels
